Results published in patent publication US20110142866A1, “PEPTIDE ANALOGUES AND CONJUGATES THEREOF” (Eldrug S.A., priority 2007, published 2011).
Entries after “also recorded” stand apart in the source; their conditions may differ. Positions of bridges follow the written chain, without caps; N, C: chain ends. No end group written: not given here.

Tests used:
MBP72-85 induced EAE = experiment: Induction-inhibition of MBP-EAE in Lewis rats; type: in vivo; details: co-injection (500 μg) with MBP72-85 (25 μg)
native MBP87-99 peptide = experiment: ELISA cross reaction of sera with native MBP87-99 peptide; type: in vivo; details: 1/500 and 1/1,000 sera dilutions
Experimental: (§1) Blood was collected and sera isolated from mice prior to and 4 weeks after immunization with CFA or 14 days after the last immunization with reduced mannan conjugates. MBP87-99 or [A^91, A^96]MBP87-99 peptides conjugated to BSA or KLH were coated onto polyvinyl chloride (PVC) microtiter plates at 10 μg/ml in 0.2 M NaHCO3 buffer, pH 9.6, 0/N at 4° C. Non-specific binding was blocked with 2% BSA for 1.0 h at RT. After washing (0.05 Tween 20/PBS), serial dilutions of sera were added and incubated for a further 2 h at RT. The plates were washed and bound antibody was detected using HRP-conjugated sheep anti-mouse antibody (1/1000 dilution in PBS) (Amersham, UK) and developed using 2,2′-azino-di(3-ethylbenzthiazoline)6-sulfonic acid (ABTS) (Sigma, UK). Absorbance at 405 nm was recorded using a Fluostar Optima microplate reader (BMG labtech, Offenburg, Germany).
(§2) ELISpot assays for IFN-γ and IL-4 secretion by T cells and ELISA assays for binding of sera to native MBP protein or peptide were carried out as previously described^3, 4, 20, 21. Mean values were compared using the Student's two-tailed t-test. P value threshold of p<0.01 indicates a statistically significant difference.

[1] = tested on: IFN-γ secretion by T cells; experiment: IFN-γ ELISpot of spleen cells from immunized mice; type: in vivo, SJL/J mice; details: for cross-reaction of IFN-γ producing T cells with native MBP87-99 peptide: recall peptide native MBP87-99
Experimental: (§3) Female 6-8 week old SJL/J mice used in all experiments, were purchased from Walter and Eliza Hall Institute (VIC Australia) and housed at the Biological Research Laboratory at Burnet Institute at Austin, Heidelberg, Australia. SJL/J mice were immunized twice on days 0, 14 intradermally (base of tail) with 50 μg MBP83-99 peptide analogue-KLH-reduced mannan.
(§4) ELISpot analyses specific T cell responses to antigens by detecting the secretion of specific cytokines. Spleen cells from immunized SJL/J mice were isolated 14 days after immunization and assessed by ELISpot for IFN-γ, IL-4 or IL-10 secretion by T cells. IFN-γ ELISpot assay was performed on MultiScreen-IP Filter Plate (MAIP S4510) with hydrophobic PVDF filters (Millipore, UK) while IL-4 and IL-10 ELISpot was performed on MultiScreen-HA Filter Plate (MAHA S4510) with mixed cellulose esters filters (Millipore, UK). MAIP S4510 plates were pre-wet with 50 μl of 70% ethanol, washed 5 times with 200 μl sterile PBS and coated with 70 μl of 5 μg/ml anti-IFN-γ capture antibody, AN18 (Mabtech, Australia) in PBS and left to incubate at 4° C. O/N. While 70 μl of 5 μg/ml anti-IL-4 and anti-IL-10 capture antibody (Mabtech, Australia) was added directly to MAHA S4510 plates and incubated at 4° C. O/N without 70% ethanol treatment. Following 5 washes with PBS, plates were blocked by adding 200 μl of culture media (supplemented with 2.5% FCS) and incubated for 2 hours at 37° C. The blocking media was discarded and 10 μg/ml recall peptides (MBP83-99 peptide analogues not conjugated to KLH-reduced mannan) were added into each defined well. Con A (1.0 μg/ml; IL-4 and IFN-γ) or LPS (1.0 μg/ml; IL-10) were used as an internal positive controls and no peptide was used as negative control. Triplicate wells were set up for each condition. 5×10^5 spleen cells in 100 μl culture media were seeded into each well and incubated for 18 hours for IFN-γ, 24 hours for IL-4 and 48 hours for IL-10 at 37° C. Plates were washed 5 times PBS/0.05% Tween 20 and 5 times PBS and incubated for 2 hours at RT with anti-murine IFN-γ, IL-4 or IL-10 monoclonal antibody-biotin. Plates were washed and streptavidin-ALP was added at 1.0 μg/ml and incubated for 2.0 hours at RT. Spots of activity were detected using a colorimetric AP kit (Biorad, Hercules, Calif. USA) and counted using an AID ELISpot plate reader (Autoimmun Diagnostika GmbH, Germany). Data are presented as mean spot forming units (sfu) per 0.5×10^6 cells +/−standard error of the mean (SEM).
(§5) MBP87-99, [R^91, A^96]MBP87-99 or [A^91, A^96]MBP87-99 peptides were dissolved in PBS and emulsified in an equal volume of complete Freund's adjuvant (CFA) which contained 1.0 mg/ml of heat killed Mycobacterium tuberculosis H37RA (Sigma, Victoria, Australia). SJL/J mice were given one subcutaneous injection containing 50 μg peptide into the base of tail.
(§6) SJL/J mice were immunized twice on days 0 and 14 intradermally (base of tail) with 50 μg MBP87-99-KLH-reduced mannan, [R^91, A^96]MBP87-99-KLH-reduced mannan or [A^91, A^96]MBP87-99-KLH-reduced mannan conjugates.
(§7) ELISpot detects specific T cell responses to antigens by measuring the secretion of specific cytokines from individual cells. Spleen cells from immunized SJL/J mice were isolated 28 days after CFA immunization or 14 days after the last immunization with reduced mannan-peptides and assessed by ELISpot for IFN-γ and IL-4 secretion by T cells. IFN-γ ELISpot assay was performed on MultiScreen-IP Filter Plate (MAIP S4510) with hydrophobic PVDF filters (Millipore, UK), while IL-4 ELISpot assays were performed on MultiScreen-HA Filter Plate (MAHA S4510) with mixed cellulose esters filters (Millipore, UK). MAIP S4510 plates were pre-weted with 50 μl of 70% ethanol, washed 5 times with 200 μl of sterile phosphate-buffered saline (PBS) and coated with 70 μl of 5 μg/ml anti-IFN-γ capture antibody, AN18 (Mabtech, Australia) in PBS and incubated O/N at 4° C. […]

[2] = tested on: respective peptides conjugated to BSA or KLH; experiment: ELISA total IgG antibody responses to the respective peptide; type: in vivo, SJL/J mice
Experimental: as §1, §2

[3] = tested on: IL-4 secretion by T cells; experiment: IL-4 ELISpot of spleen cells from immunized mice; type: in vivo, SJL/J mice
Experimental: as §3, §4, §5, §6, §7

[4] = peptide conjugated to reduced mannan
[5] = 50 μg peptide conjugated to reduced mannan, two intradermal injections, spleen cells 14 days post-immunization
[6] = 50 μg peptide emulsified in CFA, one injection, spleen cells 28 days

Row | Substance | inhibition of EAE (MBP72-85 induced EAE) | cross-reaction of antibodies with native MBP87-99 peptide (native MBP87-99 peptide; [4]) | cross-reaction of antibodies with native MBP87-99 peptide (native MBP87-99 peptide; peptide emulsified in CFA) | IFN-γ secreting T cells (in words) [1, 5] | IFN-γ secreting T cells (in words) [1, 6] | cross-reaction of IFN-γ producing T cells with native MBP87-99 peptide [1, 4] | cross-reaction of IFN-γ producing T cells with native MBP87-99 peptide ([1]; peptide emulsified in CFA) | IgG antibody responses (in words) [2, 4] | IgG antibody responses (in words) ([2]; peptide emulsified in CFA) | IL-4 secreting T cells (in words) [3, 5] | IL-4 secreting T cells (in words) [3, 6] | also measured
1 | Val-His-Phe-Phe-Lys^91-Asn-Ile-Val-Thr-Ala^96-Arg-Thr-Pro^99 (VHFFKNIVTARTP; lactam 5-C) [cyclo(91-99)[Ala^96] MBP87-99] | low inhibitory activity | – | – | – | – | – | – | – | – | – | – | –
2 | cyclo, head-to-tail, VHFFANIVTARTP (VHFFXNIVTXRTP; cyclised or stapled) [cyclo(87-99)[A^91, A^96]MBP87-99] | – | did not react | did not react | reduce IFN-γ production | reduce IFN-γ production | did not cross-react | did not cross-react | higher levels | no IgG antibodies | moderate levels | moderate levels | decrease of IFN-γ compared to linear MBP87-99 conjugated to reduced mannan [1, 4]: ~50%; decrease of IFN-γ compared to linear MBP87-99 emulsified in CFA [1, 4]: ~70%; decrease of IFN-γ compared to the same peptide emulsified in CFA [1, 4]: ~50%
3 | VHFFKNIVTPRTP [MBP87-99, reference compound] | – | – | – | high levels | high levels | – | – | higher levels | very low levels and Low | did not induce; also recorded: No detectable | did not induce; also recorded: No detectable | –
4 | VHFFANIVTARTP [[A^91, A^96]MBP87-99] | – | did not cross-react | did not cross-react | no IFN-γ was detected | strong levels | did not cross-react | did not cross-react | – | No IgG antibody levels | high levels | high levels | –
5 | Val^87-His-Phe-Phe-Arg^91-Asn-Ile-Val-Thr-Ala^96-Arg-Thr-Pro^99 [cyclo(87-99)[Arg^91, Ala^96] MBP87-99] | strong inhibitor of EAE | – | – | – | – | – | – | – | – | – | – | inhibition of EAE (MBP72-85 induced EAE; listed as cyclo(87-99)[Arg^91,Ala^96]MBP87-99): completely prevented the induction of EAE
6 | VHFFRNIVTARTP [[R^91, A^96]MBP87-99] | – | – | – | – | – | – | – | – | – | very high | low levels | decrease of IFN-γ relative to native MBP87-99 [1, 4]: 70%; decrease of IFN-γ relative to native MBP87-99 ([1]; peptide emulsified in CFA): 30%; inhibition of EAE (MBP72-85 induced EAE; listed as [Arg^91, Ala^96]MBP87-99): completely prevented the development of EAE; inhibition of EAE (MBP72-85 induced EAE; listed as [Arg^91,Ala^96]MBP87-99): completely prevented the induction of EAE
